Test results reported in patent publication US6517870B1, “Oral formulation comprising biguanide and an organic acid” (Sumitomo Pharmaceuticals Company, Limited, priority 1998, dated 2003).
Where a name gives a salt, the structure may show the parent alone.

Experiment: Stability experiment: remaining amount of metformin by HPLC after heating
Assay type: physicochemical
Conditions: below pH 3.5
Experimental: Tasting and stability experiments on the solutions at various pH of Example 13 were carried out, in the same manner as Experiment 1. A stability experiment was carried out by measuring the remaining amount of metformin in the solutions with HPLC after heating the solutions in vials at 60 C. for 2 weeks.

- stability in solution: not stable
SMILES: CN(C)C(=N)N=C(N)N [Metformin hydrochloride]
